Measurements as given in PMC13334477 (RSC Medicinal Chemistry, 2026).
Where two headings read alike, the source gives them in different places.

What was measured:
[1] = system: rLTR4-5′Cy5 (parallel RNA G4); assay: Ligand-induced fluorescence quenching assay (FQA), rLTR4-5′Cy5; assay type: binding, HIV-1
Method: Cy5 labelled oligonucleotides were purchased lyophilized and RP-cartridge purified from Eurogentec (Kanaka Eurogentec, Seraing, Belgium). The ligand-induced fluorescence quenching assay was conducted as previously described.[47] A Stratagene Mx3005P instrument was used to carry out the assay in 96-well plates. The filters for excitation and emission were set at 635 nm and 665 nm, respectively. The gain was used at 8×. The labeled oligonucleotide was used at 10 nM, and the buffer was 10 mM lithium cacodylate (pH 7.2), 10 mM KCl, and 90 mM LiCl in a final volume of 50 μL. The oligonucleotide was heated at 90 °C for 5 min and put in ice to anneal. The ligand was added over a range of concentrations between 0 and 80 μM. A competitor, ds26, was also added at 3 or 10 μM. Each experimental condition was tested in triplicate except for the ligand alone with the buffer, which was tested in duplicate. The instrument was programmed to heat the plate for 10 min at 25 °C and measure the fluorescence after 1 min for 5 cycles. The fluorescence of each sample was normalized, and the fluorescence of the ligand alone was subtracted.
We then addressed the binding of the DBA series to the rLTR4 RNA G4. The FRET melting assay was not appropriate for investigating ligand binding to this RNAs due to its high thermal stability (Tm > 72 °C).[26] We have therefore used a ligand-induced fluorescence quenching assay (FQA) to analyse the interaction of the DBAs with either 5′ or 3′ fluorescently labelled RNAs (Fig. S8). Since planar G4-ligands generally stack on an accessible G-quartet,[94–96] we expect the DBAs to also recognize G4s by stacking interactions. To conduct a fluorescence quenching experiment, a CY5 fluorophore is attached on the 3′ or 5′ end of the RNA. […] Thus, upon interaction of the ligand with the G-quartet, the ligand induces the quenching of the fluorescence emission. This test enables determination of the apparent association constants (Ka) of each DBA with the 5′ or 3′ quartet of the G4 structure (Fig. 4, Table S3). […] A similar difference in G-tetrad binding affinities has previously been observed for TMPyP4 and PhenDC3.[47]
The fluorescently labeled oligonucleotides were dissolved at a concentration of 10 nM in 10 mM lithium cacodylate buffer (pH 7.2) with 10 mM KCl and 90 mM LiCl. […] Data are the results of at least three independent experiments in which each data point was performed in duplicate.

[2] = biological target: TG4T DNA G4 (parallel); assay: Native ESI-MS, TG4T; assay type: binding; conditions: 10 μM DNA, 20 μM ligand, 100 mM ammonium acetate
Method: (§1) Oligonucleotides were purchased lyophilized and RP-cartridge purified from Eurogentec (Kanaka Eurogentec, Seraing, Belgium), then buffer exchanged with ammonium acetate (5 M; Sigma-Aldrich, Saint-Quentin-Fallavier, France) using Amicon Ultra (3 K cut-off; Merck Millipore, Cork, Ireland). The concentrations of the initial stock solutions of DNA/RNA (∼1 mM) were measured by UV absorbance at 260 nm. Sample solutions were prepared by diluting the appropriate volume of oligonucleotide stock solutions to reach 10 μM of DNA/RNA and 20 μM of ligand, in 100 mM ammonium acetate. The solutions were incubated for 16 h at 4 °C before analysis by mass spectrometry. […] These parameters ensured a good signal intensity without disrupting noncovalent complexes, which was verified using d[G4T4G4]2 as a control. The presented spectra of all DNA/RNA used in this work (Fig. 5, S9 and S10) result from 8 min accumulations. The abundance of each species, M, M + 1L, M + 2L and M + 3L complexes, where M is a monomer oligonucleotide and L is a ligand, was determined from their peak area signals (A), from the sum of the −4, −5 and −6 charge states for DNA and from the sum of the −5, −6 and −7 charge states for RNA, assuming that their response factors are equal. The molar concentrations were then calculated knowing the total amount of oligonucleotide [M]tot: [drawing 1] [drawing 2] [drawing 3] [drawing 4] The concentration of the free ligand, [L]free, was determined from its total concentration [L]tot:[L]free = [L]tot − [M + 1L] − 2[M + 2L] − 3[M + 3L]Apparent consecutive dissociation constants (Kd1, Kd2 and Kd3) were calculated by using the following equations: [drawing 5] [drawing 6] [drawing 7]
(§2) We further analysed the formation of the DBA/G4 complexes by native electrospray ionization mass spectrometry (ESI-MS). We initially attempted to analyze DBA binding to the primary G4 targets from HIV-1 (HIVpro1, HIVpro2, LTR4 and rLTR4 RNA). […] These sequences span the major G4 topological classes and provide a representative assessment of DBA binding across diverse G4 architectures. We also included two DNA duplex controls (DK100 and DK66) to evaluate binding selectivity. This ESI-MS approach enables direct determination of binding stoichiometry, quantification of each species in solution, and calculation of dissociation constants (Kd) from the relative abundances of free and bound forms.[88,97]
(§3) In the ESI-MS conditions, the rLTR4 G4 (10 μM) forms a dimeric structure. […] Among the six DNA and RNA tested here (Fig. 5B, S9 and S10) only rLTR4 presented 1 : 3 G4/DBA complexes. In all cases but one, the 1 : 1 stoichiometry represents the major species in solution while for rLTR4 it is the 1 : 2 (green). […] For TG4T tetramolecular G4 or G4T4G4 bimolecular G4 only 1 : 1 and 1 : 2 complexes were detected (Fig. S9A and S10A). […] The weakest binding was obtained for the G4T4G4 antiparallel G4 and Htel sequence with Kd1s ranging from 11 μM for to 500 μM (Table 2).

[3] = biological target: G4T4G4 DNA G4 (antiparallel); assay: Native ESI-MS, G4T4G4; assay type: binding; conditions: 10 μM DNA, 20 μM ligand, 100 mM ammonium acetate
Method: as §1, §2, §3

[4] = biological target: DK100 DNA duplex; assay: Native ESI-MS, DK100; assay type: binding; conditions: 10 μM DNA, 20 μM ligand, 100 mM ammonium acetate
Method: as §1, §2, §3

[5] = biological target: DK66 DNA duplex; assay: Native ESI-MS, DK66; assay type: binding; conditions: 10 μM DNA, 20 μM ligand, 100 mM ammonium acetate
Method: as §1, §2, §3

[6] = system: HeLa P4 cells; assay: Cell viability assay (CellTiter 96 AQueous One); assay type: cell-based; conditions: read-out: EC50 (cell viability)
[7] = system: DK100 (DNA, duplex) CGCGGGCCCGCG; assay: native ESI-MS; conditions: 100 mM ammonium acetate (NH4+), no K+, apparent, 10 μM DNA, 20 μM ligand, 4 °C incubation
[8] = HeLaP4, 24 h, 24 h treatment, formazan quantification

| SMILES | Ka rLTR4-5′Cy5 FQA ([1]; +10µM ds26) | Kd ([1]; +10µM ds26) [µM] | Ka rLTR4-5′Cy5 FQA ([1]; No ds26) | Kd ([1]; No ds26) [µM] | Kd ([2]; read-out: Kd1 TG4T) [µM] | Kd ([2]; read-out: Kd2 TG4T) [µM] | Kd ([3]; read-out: Kd1 G4T4G4) [µM] | Kd ([3]; read-out: Kd2 G4T4G4) [µM] | Kd ([4]; read-out: Kd1 DK100) [µM] | Kd ([5]; read-out: Kd1 DK66) [µM] | EC50 [6, 8] [µM] | Kd1 ([7]; almost no complex detected) [µM] | Kd ([4]; read-out: Kd2 DK100) [µM] | Kd1 ([7]; site 1 of 2, almost no complex) [µM] | Kd ([5]; read-out: Kd2 DK66) [µM] | EC50 ([6]; HeLaP4, 24 h) [µM] | Kd1 ([7]; site 1 of 2) [µM] | EC50 ([6]; 24 h treatment, formazan quantification) [µM] |
| --- | --- | --- | --- | --- | --- | --- | --- | --- | --- | --- | --- | --- | --- | --- | --- | --- | --- | --- |
| COc1ccc2c(ccc3c2cc2c4ccc(OC)cc4ccc2[n+]3-c2ccccc2)c1 [DBA1] | 1.1±0.06 10^5 M | 8.9 ± 1.8 | 1.8±0.07 10^5 M | 5.5 ± 1.5 | 14.7 | 46 | 47.1 | 38.6 | 1030 | 4830 | 5.2 | 1027.52 |  |  |  |  |  |  |
| COC(=O)c1ccc(-[n+]2c3ccc4cc(OC)ccc4c3cc3c4ccc(OC)cc4ccc32)cc1 [DBA2] | 0.9±0.03 10^5 M | 11.6 ± 3.8 | 1.1±0.03 10^5 M | 9.3 ± 2.9 | 6.09 | 25.9 | 51.2 | 33.6 | 833 | 712 | 2.9 | 833.14 |  |  |  |  |  |  |
| COc1ccc(-[n+]2c3ccc4cc(OC)ccc4c3cc3c4ccc(OC)cc4ccc32)cc1 [DBA3] | 0.9±0.07 10^5 M | 11.1 ± 1.4 | 1.2±0.06 10^5 M | 8.7 ± 1.6 | 13.6 | 52.2 | 36.9 | 37 | 156 | 1070 | 4.3 |  | 618 | 155.63 |  |  |  |  |
| COc1ccc2c(ccc3c2cc2c4ccc(OC)cc4ccc2[n+]3-c2ccc([N+](=O)[O-])cc2)c1 [DBA4] | 1.2±0.05 10^5 M | 8.4 ± 2.1 | 2.3±0.1 10^5 M | 4.4 ± 1 | 5.42 | 22.7 | 46.2 | 26.6 |  | 165 | ~15 |  | 142 |  | 308 | 15.4 | 38.42 |  |
| c1ccc(-[n+]2c3ccc4ccccc4c3cc3c4ccccc4ccc32)cc1 [DBA5] | 1.1±0.04 10^5 M | 9.5 ± 2.6 | 1.6±0.07 10^5 M | 6.2 ± 1.4 | 21.6 | 89.4 | 129 | 33.4 | 40 | 75.4 | 16.7 |  | 67.7 |  | 117 |  | 40.04 | ~15 |
